{
  "source": "patent US20030055072A1",
  "about": "“Methods of inhibiting Pin1-associated states using a fredericamycin a compound” (priority 2000, published 2003)",
  "key": {"glioblastoma cells": {"system": "glioblastoma cells", "details": "Misra et al. 1982; cited from earlier work"}, "hPin1": {"target": "hPin1 (Homo sapiens, UniProt Q13526)", "sequence (Q13526 whole entry)": "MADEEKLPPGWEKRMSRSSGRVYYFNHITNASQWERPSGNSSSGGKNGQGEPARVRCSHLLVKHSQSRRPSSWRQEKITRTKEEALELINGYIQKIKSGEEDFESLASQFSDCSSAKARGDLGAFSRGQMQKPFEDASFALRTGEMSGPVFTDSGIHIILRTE", "experiment": "protease-coupled PPIase assay, hPin1", "format": "biochemical", "procedure": "PPIase activity measurements were performed by the protease-coupled PPIase assay developed by Fischer et al. (1984). For hPin1 activity measurements, bovine trypsin (final concentration 0.21 mg/mL, Sigma) was used as an isomer-specific protease and Ac-Ala-Ala-Ser(P)-Pro-Arg-pNA (Jerini, Germany) as a substrate. PPIase activity of hFKBP12 (Sigma) and hCyp18 (Sigma) was determined with the peptide substrate Suc-Ala-Phe-Pro-Phe-pNA (Bachem) and the protease α-chymotrypsin (final concentration 0.41 mg/mL, Sigma). The test was performed by observing the released 4-nitroanilide at 390 nm with a Hewlett-Packard 8453 UV-vis spectrophotometer at 10° C. The total reaction volume was adjusted to 1.23 mL by mixing appropriate volumes of 35 mM HEPES (pH 7.8) with enzyme and effector solutions. Fredericamycin A (BioLeads, Germany) was freshly diluted from a 1 mg/mL stock solution in DMSO. If not otherwise indicated, fredericamycin A (0-6 μM) was pre-incubated with the enzyme for 5 min (10° C.). Prior to the start of reaction by addition of the respective protease, 2 μL of the peptide substrate stock solution (10 mg/mL in DMSO) were added. The amount of organic solvent was kept constant within each experiment (<0.1%). The pseudo-first-order rate constant kobs for cis/trans isomerization in the presence of PPlase and the first-order rate constant k0 of the unkatalyzed cis/trans isomerization were calculated using the Kinetics Software of Hewlett-Packard as well as SigmaPlot2000 for Windows 6.0 (SPSS). The Ki value for inhibition of hPin1 PPIase activity by fredericamycin A at constant concentrations of substrate ([S0]<<KM) was calculated by fitting the data according to the equation for a competitive “tight-binding” inhibitor using SigmaPlot2000.\nFIG. 1: Ki value for hPin1 PPlase activity inhibition by fredericamycin A. PPIase activity measurements were performed as described in Materials and Methods. 6.0 nM of Pin1 were pre-incubated with 0-4.8 μM fredericamycin A in 35 mM HEPES (pH 7.8) at […] for 5 min. Ac-Ala-Ala-Ser(P)-Pro-Arg-pNA (21.9 μM) was used as a substrate. Reactions were started by addition of trypsin.\nFIG. 2: Time dependency of Pin1 PPIase activity inhibition by fredericamycin A. PPIase activity measurements were performed as described in Materials and Methods. 6.0 nM hPin1 was incubated for 0, 5, 10, 15, 20, 25 and 30 min with 0 (●) and 1 μM (♦) fredericamycin, respectively.\nFIG. 3: Reversibility of the interaction between hPin1 and fredericamycin A. 209 nM of hPin1 were incubated with 0 (▪) and 0.16 (□) […] fredericamycin A and the remaining PPIase activity of hPin1 was measured before and after micro-separation through a semipermeable membrane using the protease-coupled PPlase assay according to Materials and Methods."}, "hCyp18": {"target": "T1, hCyp18 (Homo sapiens, UniProt P62937)", "T1 construct": "purchased Sigma", "T1 sequence (P62937 whole entry)": "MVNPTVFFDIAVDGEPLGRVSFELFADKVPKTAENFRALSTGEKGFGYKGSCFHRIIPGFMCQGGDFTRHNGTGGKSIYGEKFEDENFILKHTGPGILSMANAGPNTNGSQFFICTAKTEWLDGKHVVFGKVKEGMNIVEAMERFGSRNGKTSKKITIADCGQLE", "experiment": "protease-coupled PPIase assay, hCyp18", "format": "biochemical", "procedure": "(§1) PPIase activity measurements were performed by the protease-coupled PPIase assay developed by Fischer et al. (1984). For hPin1 activity measurements, bovine trypsin (final concentration 0.21 mg/mL, Sigma) was used as an isomer-specific protease and Ac-Ala-Ala-Ser(P)-Pro-Arg-pNA (Jerini, Germany) as a substrate. PPIase activity of hFKBP12 (Sigma) and hCyp18 (Sigma) was determined with the peptide substrate Suc-Ala-Phe-Pro-Phe-pNA (Bachem) and the protease α-chymotrypsin (final concentration 0.41 mg/mL, Sigma). The test was performed by observing the released 4-nitroanilide at 390 nm with a Hewlett-Packard 8453 UV-vis spectrophotometer at 10° C. The total reaction volume was adjusted to 1.23 mL by mixing appropriate volumes of 35 mM HEPES (pH 7.8) with enzyme and effector solutions. […] The pseudo-first-order rate constant kobs for cis/trans isomerization in the presence of PPlase and the first-order rate constant k0 of the unkatalyzed cis/trans isomerization were calculated using the Kinetics Software of Hewlett-Packard as well as SigmaPlot2000 for Windows 6.0 (SPSS). The Ki value for inhibition of hPin1 PPIase activity by fredericamycin A at constant concentrations of substrate ([S0]<<KM) was calculated by fitting the data according to the equation for a competitive “tight-binding” inhibitor using SigmaPlot2000."}, "DU-145 prostate tumor": {"system": "DU-145 prostate tumor", "experiment": "tumor growth in scid mouse human prostate tumor model", "format": "in vivo, scid mice"}, "hFKBP12": {"target": "T2, hFKBP12 (Homo sapiens, UniProt P62942)", "T2 construct": "purchased Sigma", "T2 sequence (P62942 whole entry)": "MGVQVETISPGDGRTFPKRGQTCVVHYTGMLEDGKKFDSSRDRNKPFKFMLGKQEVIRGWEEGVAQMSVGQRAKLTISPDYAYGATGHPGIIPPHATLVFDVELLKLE", "experiment": "protease-coupled PPIase assay, hFKBP12", "format": "biochemical", "procedure": "as §1"}, "[1]": {"details": "Day 7 (before dosing), group 0.34 mg/kg ip Days 16-20"}, "[2]": {"details": "Day 12 (before dosing), group 0.34 mg/kg ip Days 16-20"}, "[3]": {"details": "Day 14 (before dosing), group 0.34 mg/kg ip Days 16-20"}, "[4]": {"details": "Day 18, 0.34 mg/kg ip Days 16-20"}, "[5]": {"details": "Day 21, 0.34 mg/kg ip Days 16-20"}, "[6]": {"details": "Day 25, 0.34 mg/kg ip Days 16-20"}, "[7]": {"details": "Day 28, 0.34 mg/kg ip Days 16-20"}, "[8]": {"details": "Day 32, 0.34 mg/kg ip Days 16-20"}},
  "note": "Where two headings read alike, the source gives them in different places.",
  "data": [
    {"smiles": "C/C=C/C=C/c1cc2cc3c(c(O)c2c(=O)[nH]1)C1(CC3)C(=O)c2c(O)c3c(c(O)c2C1=O)C(=O)C(OC)=CC3=O", "note": "(stereo not drawn) [fredericamycin A]", "values": [
      {"measurement": "anti-tumor activity against glioblastoma cells", "setting": "glioblastoma cells", "result": "comparable to 1,3-bis(2-chloroethyl)-1-nitrosourea (BCNU)"},
      {"measurement": "death of mice", "setting": "0.67 mg/kg ip from Day 16, ten mice per group", "result": "All of the mice receiving 0.67 mg/kg of Fred A died by about Day 17"},
      {"measurement": "number of mice that lived until Day 32", "setting": "mouse, in vivo", "result": 2},
      {"measurement": "Ki", "setting": "hPin1; 6.0 nM Pin1, 5 min pre-incubation, 35 mM HEPES pH 7.8, substrate Ac-Ala-Ala-Ser(P)-Pro-Arg-pNA, competitive tight-binding fit, read-out: Ki value for inhibition of the PPIase activity of hPin1", "result": "820 ± 608", "unit": "nM"},
      {"measurement": "time dependency of inhibition of hPin1 PPIase activity", "setting": "hPin1; 6.0 nM hPin1, 1 μM inhibitor, 0-30 min incubation", "result": "no time dependency of inhibition within 30 min"},
      {"measurement": "remaining hPin1 PPIase activity", "setting": "hPin1; 209 nM hPin1, 0.16 mM inhibitor, before micro-concentration", "result": 23, "unit": "%"},
      {"measurement": "hPin1 reactivation after micro-concentration through semi-permeable membrane (reversibility)", "setting": "hPin1; 209 nM hPin1, 0.16 mM inhibitor, buffer replaced 3 times, compared to inhibitor-free enzyme control", "result": 97.5, "unit": "%"},
      {"measurement": "preference for the parvulin hPin1 over the other tested PPIases", "setting": "hPin1; hPin1 versus hCyp18 and hFKBP12", "result": "6- to 7 fold"},
      {"measurement": "IC50", "setting": "hPin1; protease-coupled PPIase assay", "result": "890 ± 50", "unit": "nM"},
      {"measurement": "IC50", "setting": "hCyp18", "result": "5.1 ± 2", "unit": "µM"},
      {"measurement": "Tumor Volume", "setting": "DU-145 prostate tumor; [1]", "result": 0.02, "unit": "cm^3"},
      {"measurement": "Tumor Volume", "setting": "DU-145 prostate tumor; Day 7 (before dosing), group 0.67 mg/kg ip Days 16-20", "result": 0.04, "unit": "cm^3"},
      {"measurement": "Tumor Volume", "setting": "DU-145 prostate tumor; [2]", "result": 0.05, "unit": "cm^3"},
      {"measurement": "Tumor Volume", "setting": "DU-145 prostate tumor; Day 12 (before dosing), group 0.67 mg/kg ip Days 16-20", "result": 0.04, "unit": "cm^3"},
      {"measurement": "Tumor Volume", "setting": "DU-145 prostate tumor; [3]", "result": 0.05, "unit": "cm^3"},
      {"measurement": "Tumor Volume", "setting": "DU-145 prostate tumor; Day 14 (before dosing), group 0.67 mg/kg ip Days 16-20", "result": 0.07, "unit": "cm^3"},
      {"measurement": "Tumor Volume", "setting": "DU-145 prostate tumor; [4]", "result": 0.03, "unit": "cm^3"},
      {"measurement": "Tumor Volume", "setting": "DU-145 prostate tumor; Day 18, 0.67 mg/kg ip Days 16-20", "result": 0.05, "unit": "cm^3"},
      {"measurement": "Tumor Volume", "setting": "DU-145 prostate tumor; [5]", "result": 0.11, "unit": "cm^3"},
      {"measurement": "Tumor Volume", "setting": "DU-145 prostate tumor; [6]", "result": 0.11, "unit": "cm^3"},
      {"measurement": "Tumor Volume", "setting": "DU-145 prostate tumor; [7]", "result": 0.22, "unit": "cm^3"},
      {"measurement": "Tumor Volume", "setting": "DU-145 prostate tumor; [8]", "result": 0.35, "unit": "cm^3"},
      {"measurement": "reduction of mean tumor volume as compared to the DMSO or Mitox controls", "setting": "DU-145 prostate tumor; FIG. 4, DU-145 tumor bearing scid mice, ip Days 16-20", "result": 50, "unit": "%"},
      {"measurement": "IC50", "setting": "hFKBP12", "result": "6.2 ± 1.7", "unit": "µM"}
    ]},
    {"smiles": "O=C1c2c(O)ccc(O)c2C(=O)c2c(NCCNCCO)ccc(NCCNCCO)c21", "note": "[Mitox, reference compound]", "values": [
      {"measurement": "mice that died after 32 days", "setting": "0.34 mg/kg ip Days 16-20, ten mice per group", "result": "None"},
      {"measurement": "Mean Mouse Weight", "setting": "[1]", "result": 27.98, "unit": "g"},
      {"measurement": "Mean Mouse Weight", "setting": "[2]", "result": 28.32, "unit": "g"},
      {"measurement": "Mean Mouse Weight", "setting": "[4]", "result": 27.39, "unit": "g"},
      {"measurement": "Mean Mouse Weight", "setting": "[6]", "result": 27.38, "unit": "g"},
      {"measurement": "Mean Mouse Weight", "setting": "[8]", "result": 28.04, "unit": "g"},
      {"measurement": "Mean Mouse Weight", "setting": "Day −6 (before dosing), group 0.34 mg/kg ip Days 16-20", "result": 26.36, "unit": "g"},
      {"measurement": "Tumor Volume", "setting": "DU-145 prostate tumor; [1]", "result": 0.02, "unit": "cm^3"},
      {"measurement": "Tumor Volume", "setting": "DU-145 prostate tumor; [2]", "result": 0.05, "unit": "cm^3"},
      {"measurement": "Tumor Volume", "setting": "DU-145 prostate tumor; [3]", "result": 0.09, "unit": "cm^3"},
      {"measurement": "Tumor Volume", "setting": "DU-145 prostate tumor; [4]", "result": 0.19, "unit": "cm^3"},
      {"measurement": "Tumor Volume", "setting": "DU-145 prostate tumor; [5]", "result": 0.22, "unit": "cm^3"},
      {"measurement": "Tumor Volume", "setting": "DU-145 prostate tumor; [6]", "result": 0.37, "unit": "cm^3"},
      {"measurement": "Tumor Volume", "setting": "DU-145 prostate tumor; [7]", "result": 0.53, "unit": "cm^3"},
      {"measurement": "Tumor Volume", "setting": "DU-145 prostate tumor; [8]", "result": 0.72, "unit": "cm^3"}
    ]}
  ]
}
